Test: Relaxivity determinations (T1 and T2 relaxation times, Bruker Minispec mq60)
Format: physicochemical
Conditions: in PBS, 0.25-1 mM Fe chelate, 60 MHz, 40° C.; gradient of 1/T1 vs Fe chelate concentration
Protocol: A stock solution having a concentration of 1 mM of the contrast enhancement agent was prepared in phosphate buffered saline (PBS) and the iron concentration was verified by elemental analysis. Separate 0.75 mM, 0.50 mM and 0.25 mM samples were prepared from the stock by dilution in PBS and the T1 and T2 relaxations times were recorded in triplicate for each using sample on a Bruker Minispec mq60 instrument (60 MHz, 40° C.). The relaxivities (r1 and r2) were obtained as the gradient of 1/Tx (x=1,2) plotted against Fe chelate concentration following linear least squares regression analysis. Data for contrast enhancement agents having structures III, IV, V, VI, VII, and VII, and a non-hydroxylated control contrast enhancement agent.

Substance	r1 relaxivity [mM⁻¹ s⁻¹]
FeHBED(OH)2 [IV]	0.8
FeHBED(OH')2 [VII]	1.0
FeHBED(Me)2(OH)2 [III]	0.9
FeHBED(OH) [VI]	1.1

— patent US8378134B2, “Hydroxylated contrast enhancement agents” (General Electric Company, priority 2009, dated 2013)
